Reference: the supplement of paper PMC10307832

Key:
Assay in all cases: relative viability (nuclei count vs DMSO), 5 days (fraction); higher = more cells survive
[1] = compound: COc1cc(Nc2ncc(F)c(Nc3ccc4c(n3)NC(=O)C(C)(C)O4)n2)cc(OC)c1OC [R406] + Nc1nc2[nH]cc(CCc3ccc(C(=O)N[C@@H](CCC(=O)O)C(=O)O)cc3)c2c(=O)[nH]1 [Pemetrexed] (partner 0.2 µM)
Procedure, shortened: (§1)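 Relative viability equals treated-well nuclei counts divided by vehicle-well nuclei counts. Counts came from 4× images of lung cancer cell lines grown in 1536-well plates for 5 days after pin-tool dosing on the day after seeding. Dosing used one drug alone or a fixed anchor-drug dose plus five library-drug doses (not always all listed) in √10 steps, and values are medians of duplicate plates.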

[2] = compound: O=C(/C=C/c1cccnc1)NCCCCC1CCN(C(=O)c2ccccc2)CC1 [Daporinad] + CC(=O)Nc1cccc(-n2c(=O)n(C3CC3)c(=O)c3c(Nc4ccc(I)cc4F)n(C)c(=O)c(C)c32)c1 [Trametinib] (partner 0.02 µM)
Procedure, shortened: as §1

[3] = compound: O=C(/C=C/c1cccnc1)NCCCCC1CCN(C(=O)c2ccccc2)CC1 [Daporinad] + COc1cc2c(Oc3ccc(NC(=O)C4(C(=O)Nc5ccc(F)cc5)CC4)cc3F)ccnc2cc1OCCCN1CCOCC1 [Foretinib] (partner 0.25 µM)
Procedure, shortened: as §1

[4] = compound: O=C(/C=C/c1cccnc1)NCCCCC1CCN(C(=O)c2ccccc2)CC1 [Daporinad] + Nc1nc2[nH]cc(CCc3ccc(C(=O)N[C@@H](CCC(=O)O)C(=O)O)cc3)c2c(=O)[nH]1 [Pemetrexed] (partner 0.2 µM)
Procedure, shortened: as §1

Cell Line | relative viability ([1]; first compound 0.08 µM) | relative viability ([1]; first compound 0.253 µM) | relative viability ([1]; first compound 0.8 µM) | relative viability ([1]; first compound 2.53 µM) | relative viability ([1]; first compound 8 µM) | relative viability ([2]; first compound 0.0005 µM) | relative viability ([2]; first compound 0.001581 µM) | relative viability ([2]; first compound 0.005 µM) | relative viability ([2]; first compound 0.01581 µM) | relative viability ([3]; first compound 0.0005 µM) | relative viability ([3]; first compound 0.001581 µM) | relative viability ([3]; first compound 0.005 µM) | relative viability ([3]; first compound 0.01581 µM) | relative viability ([4]; first compound 0.0005 µM) | relative viability ([4]; first compound 0.001581 µM) | relative viability ([4]; first compound 0.005 µM) | relative viability ([4]; first compound 0.01581 µM)
SK-MES-1 | 0.948 | 0.942 | 1.01 | 0.538 | 0.213 | 0.561 | 0.524 | 0.613 | 0.743 | 0.837 | 1.19 | 0.916 | 1.21 | 1.04 | 0.816 | 0.955 | 0.64
NCI-H2405 | 1.14 | 1.22 | 1.08 | 0.495 | 0.224 | 0.69 | 0.664 | 0.647 | 0.509 | 1.16 | 1.08 | 1.13 | 1.05 | 1.17 | 1.14 | 1.03 | 0.413
NCI-H1755 | 0.474 | 0.419 | 0.426 | 0.385 | 0.33 | 0.751 | 0.761 | 0.779 | 0.768 | 0.928 | 0.46 | 0.848 | 0.966 | 0.421 | 0.397 | 0.454 | 0.469
HCC-78 | 0.807 | 0.972 | 0.962 | 0.847 | 0.878 | 0.68 | 0.821 | 0.71 | 1.1 | 0.54 | – | 0.594 | 0.62 | 0.869 | 0.897 | 0.798 | 0.874
LOU-NH91 | 0.362 | 0.399 | 0.37 | 0.455 | 0.38 | 0.797 | 0.847 | 0.922 | 0.941 | 0.95 | 0.991 | 1.11 | 1.22 | 0.383 | 0.359 | 0.509 | 0.482
NCI-H3122 | 0.198 | 0.202 | 0.189 | 0.194 | 0.17 | 0.165 | 0.227 | 0.213 | 0.217 | 0.869 | 0.955 | 0.988 | 1.05 | 0.199 | 0.185 | 0.185 | 0.203
HCC-827 | 0.259 | 0.262 | 0.264 | 0.229 | 0.193 | 0.498 | 0.508 | 0.553 | 0.552 | 0.984 | 1.14 | 1.1 | 1.11 | 0.295 | 0.268 | 0.281 | 0.256
SW 1573 | 0.815 | 0.898 | 0.903 | 0.601 | 0.324 | 0.499 | 0.45 | 0.447 | 0.28 | 0.962 | 0.701 | 1.06 | 0.744 | 0.798 | 0.74 | 0.7 | 0.461
NCI-H1975 | 0.29 | 0.322 | 0.272 | 0.261 | 0.175 | 0.329 | 0.286 | 0.341 | 0.454 | 0.892 | 0.952 | 0.966 | 0.931 | 0.3 | 0.313 | 0.31 | 0.256
NCI-H1651 | 0.475 | 0.679 | 0.573 | 0.548 | 0.508 | 0.854 | 0.825 | 0.823 | 0.757 | 0.722 | 0.769 | 0.623 | 0.595 | 0.602 | 0.557 | 0.659 | 0.545
NCI-H460 | 0.064 | 0.0593 | 0.0591 | 0.0591 | 0.0556 | 0.0943 | 0.147 | 0.187 | 0.206 | 1.07 | 1.04 | 0.968 | 1.02 | 0.0681 | 0.0617 | 0.0618 | 0.0602
LCLC-103H | 0.477 | 0.462 | 0.486 | 0.499 | 0.376 | 0.738 | 0.69 | 0.701 | 0.757 | 0.846 | 0.834 | 0.884 | 0.868 | 0.497 | 0.453 | 0.508 | 0.471
LCLC-97TM1 | 0.182 | 0.2 | 0.171 | 0.183 | 0.194 | 0.188 | 0.158 | 0.189 | 0.177 | 0.832 | 0.929 | 1.08 | 1.03 | 0.17 | 0.2 | 0.165 | 0.185
NCI-H838 | 0.257 | 0.268 | 0.244 | 0.226 | 0.136 | 0.496 | 0.637 | 0.542 | 0.265 | 1.06 | 1.11 | 0.965 | 0.567 | 0.249 | 0.262 | 0.172 | 0.179
NCI-H1355 | 1.09 | 1.09 | 1.09 | 0.982 | 0.911 | 0.409 | 0.465 | 0.298 | 0.557 | 0.997 | 1.01 | 1.06 | 1.02 | 1 | 1.1 | 1.03 | 0.873
HOP-62 | 0.315 | 0.348 | 0.297 | 0.412 | 0.344 | 0.453 | 0.427 | 0.484 | 0.422 | 0.838 | 1.01 | 1.1 | 0.639 | 0.297 | 0.32 | 0.284 | 0.282
NCI-H2085 | 0.89 | 0.902 | 0.867 | 0.64 | 0.589 | 0.515 | – | 0.653 | 0.538 | 0.872 | 0.973 | 1.11 | 0.781 | 0.843 | – | 0.994 | 1.04
SW 900 | 0.486 | 0.486 | 0.532 | 0.129 | 0.0856 | 0.668 | – | 1.03 | 0.663 | 0.881 | 0.765 | 0.885 | 0.709 | 0.486 | – | 0.506 | 0.496
